In US20220395495A1 (priority 2019, published 2022):

Tests used:
Mtb H37Rv [1] = assay: Mouse chronic infection model of tuberculosis, lung bacterial CFU, Inh or Rif with or without CQ; format: in vivo, BALB/c mice; details: mice, 10 mg/kg chloroquine added to first line TB drug (FIGS. 1B, 1C)
TB = assay: Direct in vitro activity on TB
Mtb H37Rv [2] = assay: Guinea pig infection model of tuberculosis, lung bacterial burden, Inh with or without CQ; format: in vivo, Outbred Hartley guinea pigs; details: Guinea pigs (FIG. 1F)
[3] = Plasma concentrations and exposures of CQ by intraperitoneal or oral route; details: in vivo
Mtb within macrophages = assay: Drug tolerance and killing of Mtb within macrophages; format: cell-based; details: by deacidification
Mtb H37Rv [4] = assay: Dexamethasone-induced reactivation (relapse) of Mtb in the lungs of chronically infected BALB/c mice after treatment; format: in vivo

Structure (SMILES)	Bacterial killing and efficacy on addition of chloroquine to Isoniazid (H) or Rifampicin (R) (Mtb H37Rv [1])	Direct in vitro activity on TB (TB)	Bacterial killing and efficacy on addition of chloroquine to Isoniazid (Mtb H37Rv [2])	Plasma concentrations and exposures, intraperitoneal versus oral route [3]	Effect on phenotypic drug tolerance and killing of Mtb within macrophages (Mtb within macrophages)	Average log10CFU per lung (Mtb H37Rv [4]; reactivated Mtb in lungs after dexamethasone immunosuppression, 22nd week p.i., average over relapsed animals)	Percentage relapse (Mtb H37Rv [4]; treatment stopped at 12 weeks p.i., 8 weeks without treatment, then dexamethasone 10 mg/kg i.p. x4 over 2 weeks, lungs at 22nd week p.i., n=5)
CCN(CC)CCCC(C)Nc1ccnc2cc(Cl)ccc12 (stereo not shown) [Chloroquine]	enhanced bacterial killing and efficacy	no or limited direct in vitro activity on TB	enhanced bacterial killing and efficacy	nearly equivalent plasma concentrations and exposures	counteracts phenotypic drug tolerance and accelerates killing of Mtb within macrophages		
NNC(=O)c1ccncc1 [Inh alone, Isoniazid]						4.2 (n = 5) log10CFU per lung	100% (5/5)
